Biological target: T1, PPD17 (omega-3 desaturase; delta-17 desaturase) (Phytophthora nicotianae, UniProt V9F8I2)
T1 construct: gene F443_08426; full length, 361 residues, codon-optimized oPPD17 in pYES2/NT C (His-tagged), expressed in S. cerevisiae INVSc1; 4 predicted TM domains; C-terminal KTKST; His boxes HDAGH, HRHHH, HQIHH
T1 sequence (V9F8I2 1-361): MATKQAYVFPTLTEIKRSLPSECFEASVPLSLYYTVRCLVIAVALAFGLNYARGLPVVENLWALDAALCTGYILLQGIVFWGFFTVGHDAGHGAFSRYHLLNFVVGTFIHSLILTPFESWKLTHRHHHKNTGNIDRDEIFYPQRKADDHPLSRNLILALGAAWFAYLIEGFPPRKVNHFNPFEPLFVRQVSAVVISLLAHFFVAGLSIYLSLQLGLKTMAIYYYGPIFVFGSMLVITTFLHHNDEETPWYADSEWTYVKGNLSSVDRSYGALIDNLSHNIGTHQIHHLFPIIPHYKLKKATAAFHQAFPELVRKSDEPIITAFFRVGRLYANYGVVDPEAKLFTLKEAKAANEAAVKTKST
Test: fatty acid feeding of yeast expressing PPD17, FAME analysis by GC-MS
Assay type: cell-based
Conditions: free acid fed to culture, 0.2 mM, 12 °C and 28 °C; product eicosatetraenoic acid

SMILES: CCCCC/C=C\C/C=C\C/C=C\CCCCCCC(=O)O [DGLA, dihomo-gamma-linolenic acid]
- fatty acid feeding of yeast expressing PPD17, FAME analysis by GC-MS: PPD17 had stronger substrate preference for C20-PUFA substrate AA and DGLA

From article PMC6102326, “Characterization of an Omega-3 Desaturase From Phytophthora parasitica and Application for Eicosapentaenoic Acid Production in Mortierella alpina” (Frontiers in Microbiology, 2018)
